In patent publication US20070015702A1, “Method of treatment and/or prevention of neuropathic pain” (Asahi Kasei Pharma Corporation, priority 2005, published 2007):
Where two headings read alike, the source gives them in different places.

Columns and labels:
[1] = test system: chronic constriction injury model (CCI model); test: Continuous administration of elcatonin in CCI model, hyperalgesia, withdrawal latency (BASILE Plantar Test); assay type: in vivo, rat
Description: An apparatus measures a time (withdrawal latency) until escaping after giving nociceptive heat stimulus to a posterior limb in a rat under unrestrained condition. Right hindlimb was measured as a measurement leg. Initially, a rat was placed in an acryl box on a glass plate, and domesticated for about 5 minutes. Amoving type I.R (infrared) generator (I.R. vessel) was placed under the glass plate, and “sight” cross (I.R. irradiation position) inscribed on an upper panel of the I.R. vessel was adjusted to inside of six pads on the right hind paw. In this procedure, contact of the glass plate and hind paw was confirmed. Subsequently, a start key was pushed and heat stimulation was imparted, and withdrawal latency for escaping behavior of a rat of withdrawing limb was measured. When escaping behavior is caused, a switch is automatically turned off, and reaction time is counted. […] Measurement was carried out under clean condition so that there was no feces and no urine on the glass plate.

[2] = test system: chronic constriction injury model (CCI model)
Description: Under anesthesia with ether, a rat was placed in prone position, and while touching the right femur, the skin was dissected right above it. Biceps femoris was peeled at the center of the femur, and exposed by about 5 mm trying not to injure the sciatic nerve. Using 4-0 blade silk, the sciatic nerve was liegted loosely 4 times in turn from the peripheral side. Thereafter, the fascia and the skin were sutured.
Using withdrawal threshold and body weight on the 8th day after the constriction operation as indices, the rats were divided into a CCI-vehicle group (12 rats), and CCI-ECT 0.75 mU/kg/week, CCI-ECT 7.5 mU/kg/week and CCI-ECT 75 mU/kg/week groups (each 12 rats), by a randomization method (SAS system, version 8.2). […] Body weight used for administration was estimated body weight after initiation of administration and calculated by multiplying body weight at start of administration by body weight increase coefficient (1.1) obtained in the preliminary experiment. […]
First, the position of a pressure needle was controlled to confirm that an arm was horizontal to the thickness of a rat leg. […] When the rat withdrew the limb, the foot pedal was released, and a numerical value 0 to 25) of the moving matter on a scale was read. The read numerical value was multiplied by 20, to convert into pressed weight (withdrawal threshold). […]

[3] = test system: chronic constriction injury model (CCI model); test: Intermittent subcutaneous administration of elcatonin in CCI model, nociceptive threshold; assay type: in vivo, rat
Description: On the 12th day or later after the constriction operation, ECT or vehicle was administered subcutaneously at 0.05 ml/B.W.100 g.

[4] = rat, in vivo, sc
Description: Measurement of serum calcium value was conducted using calcium C-test wako (Wako).

[5] = Shinyaku to Rinsho, 1990, vol. 39, no. 2; cited from earlier work

Substance	extent of analgesic action across dose range ([1]; 0.00075-75 U/kg/week continuous)	analgesic action on continued administration ([1]; administration continued for 2 weeks)	analgesic action (withdrawal latency) ([1]; next day after initiation of continuous administration (12th day after operation), 0.00075, 0.0075, 0.075, 7.5, 75 U/kg/week, vs vehicle group)	time after initiation of administration at which significant analgesic action was recognized ([2]; continuous s.c. administration, CCI rats) [h]	analgesic action (nociceptive threshold) ([2]; continuous s.c. mini osmotic pump, 0.75, 7.5, 75 mU/kg/week, from 11th day after constriction operation, vs vehicle group, Williams test)	analgesic action (nociceptive threshold) ([3]; 15 U/kg s.c. 3 times a week)	day after initiation of administration from which the threshold initiated to recover ([3]; 15 U/kg s.c. 5 times a week) [days]	effect on nociceptive threshold until 3-rd day after initiation of administration ([3]; 15 U/kg s.c. intermittent, 3 or 5 times a week)	manifestation of analgesic effect ([3]; intermittent administration, dose further increased)	maximum effective dose of neuropathic pain treatment by continuous administration ([1]; Example 2, rat) [U/kg/week]	maximum effective dose of neuropathic pain treatment by continuous administration, in terms of second ([1]; Example 2, rat) [mU/kg/second]	dose per unit time (second) at which serum calcium value changed (serum calcium alteration threshold) [4] [mU/kg/second]	ratio of calcitonin dose altering serum calcium value, rat versus human [5] [fold]
1-butylic acid-7-(L-2-aminobutylic acid)-26-L-aspartic acid-27-L-valine-29-L-alaninecalcitonin [elcatonin]	approximately constant	continuance of an analgesic action	significant analgesic action was confirmed in all elcatonin administration groups	16	significant analgesic action	a significant action was not observed	4	an effect was not observed	delay of manifestation of an analgesic effect was not improved				
calcitonin										75	0.124	15	25
